Publication PMC9411606, “Control cell migration by engineering integrin ligand assembly” (Nature Communications, 2022)

Test: Circular dichroism (CD) spectroscopy of peptide assemblies
Assay type: physicochemical
Settings: 100 µM, aqueous, 0.5 mm path
Method: CD spectra of the peptide assemblies in aqueous solutions were recorded under the nitrogen atmosphere using a spectrophotometer JASCO J-820 (Jasco, Japan). A quartz cuvette with 0.5 mm path length was used as a sample container. Continuous scanning mode is applied. And each sample is scanned three times to obtain an averaged spectrum.

Row | secondary structure of self-assembly | Substance
1 | β-sheet structure | FFIKLLI [candidate assembling ligand, FF coupled to N-terminus of IKLLI]
2 | random coil structure | FIKLLI [candidate assembling ligand, F coupled to N-terminus of IKLLI]
